biological target: BRD4 (Homo sapiens, UniProt O60885); assay: biochemical; type: binding; conditions: one of the FRET assays described; read-out: FRET BRD4 IC50

`Cc1nnn(C)c1-c1cc(F)c2c3ncc(C(C)(C)O)cc3n([C@H](c3ccccc3)C3CCOCC3)c2c1` [Example 11, 2-[7-(Dimethyl-1H-1,2,3-triazol-5-yl)-9-fluoro-5-[(S)-oxan-4-yl(phenyl)methyl]-5H-pyrido[3,2-b]indol-3-yl]propan-2-ol] and `Cc1nnn(C)c1-c1cc(Cl)c2c3ncc(C(C)(C)O)cc3n([C@H](c3ccccc3)C3CCOCC3)c2c1` [Example 13, 2-[9-Chloro-7-(dimethyl-1H-1,2,3-triazol-5-yl)-5-[(S)-oxan-4-yl(phenyl)methyl]-5H-pyrido[3,2-b]indol-3-yl]propan-2-ol] cannot be ordered by IC50: under 1 nM for the first, under 1 nM for the second.

`Cc1nnn(C)c1-c1ccc2c3ncc(C(C)(C)O)cc3n([C@H](c3ccc(F)cc3)C3CCOCC3)c2c1` [Example 3, 2-[7-(Dimethyl-1H-1,2,3-triazol-5-yl)-5-[(S)-(4-fluorophenyl)(oxan-4-yl)methyl]-5H-pyrido[3,2-b]indol-3-yl]propan-2-ol] and `Cc1nnn(C)c1-c1cc2c(cc1F)c1ncc(C(C)(C)O)cc1n2[C@H](c1ccccc1)C1CCOCC1` [Example 19, 2-[7-(Dimethyl-1H-1,2,3-triazol-5-yl)-8-fluoro-5-[(S)-oxan-4-yl(phenyl)methyl]-5H-pyrido[3,2-b]indol-3-yl]propan-2-ol] cannot be ordered by IC50: under 1 nM for the first, under 1500 nM for the second.

`Cc1nnn(C)c1-c1cc2c(cc1F)c1ncc(C(C)(C)O)cc1n2C(c1ccc(F)cn1)C1CCOCC1` (single isomer, unassigned) [Example 69, 2-[7-(dimethyl-1H-1,2,3-triazol-5-yl)-8-fluoro-5-[(5-fluoropyridin-2-yl)(oxan-4-yl)methyl]-5H-pyrido[3,2-b]indol-3-yl]propan-2-ol] and `[2H]C([2H])([2H])c1nnn(C)c1-c1cc2c(cc1F)c1ncc(C(C)(C)O)cc1n2C(c1ccc(F)cn1)C1CCOCC1` (single isomer, unassigned) [Example 44, 2-{8-fluoro-5-[(5-fluoropyridin-2-yl)(oxan-4-yl)methyl}-7-[4-(^2H3)methyl-1-methyl-1H-1,2,3-triazol-5-yl]-5H-pyrido[3,2-b]indol-3-yl]propan-2-ol] cannot be ordered by IC50: under 1500 nM for the first, under 1500 nM for the second.

`[2H]C([2H])([2H])c1nnn(C)c1-c1cc2c(cc1F)c1ncc(C(C)(C)O)cc1n2C(CCOC)c1ccccc1` (single isomer, unassigned) [Example 62, 2-[8-fluoro-5-(3-methoxy-1-phenylpropyl)-7-[4-(^2H3)methyl-1-methyl-1H-1,2,3-triazol-5-yl]-5H-pyrido[3,2-b]indol-3-yl]propan-2-ol] and `[2H]C([2H])([2H])c1nnn(C)c1-c1cc2c(cc1F)c1ncc(C(C)(C)O)cc1n2C(c1ccccc1)C1(C)COC1` (single isomer, unassigned) [Example 65, 2-{8-fluoro-7-[4-(^2H3)methyl-1-methyl-1H-1,2,3-triazol-5-yl]-5-[(3-methyloxetan-3-yl)(phenyl)methyl]-5H-pyrido[3,2-b]indol-3-yl}propan-2-ol] cannot be ordered by IC50: under 1500 nM for the first, under 1500 nM for the second.

`[2H]C([2H])([2H])c1nnn(C)c1-c1cc2c(cc1F)c1ncc(C(C)(C)O)cc1n2[C@H](c1ccccc1F)C1CCOCC1` [Example 22, 2-{8-Fluoro-5-[(S)-(2-fluorophenyl)(oxan-4-yl)methyl]-7-[4-(^2H3)methyl-1-methyl-1H-1,2,3-triazol-5-yl]-5H-pyrido[3,2-b]indol-3-yl}propan-2-ol] and `[2H]C([2H])([2H])c1nnn(C)c1-c1cc2c(cc1F)c1ncc(C(C)(C)O)cc1n2C(c1ncccc1F)C1CCOCC1` (stereo not shown) [Example 31, 2-{8-Fluoro-5-[(3-fluoropyridin-2-yl)(oxan-4-yl)methyl]-7-[4-(^2H3)methyl-1-methyl-1H-1,2,3-triazol-5-yl]-5H-pyrido[3,2-b]indol-3-yl}propan-2-ol] cannot be ordered by IC50: under 1 nM for the first, under 5 nM for the second.

`CCCC(CCC)n1c2cc(-c3c(C)nnn3C)ccc2c2ncc(C(C)(C)O)cc21` [Example 5, 2-[7-(dimethyl-1H-1,2,3-triazol-5-yl)-5-(heptan-4-yl)-5H-pyrido[3,2-b]indol-3-yl]propan-2-ol] and `Cc1nnn(C)c1-c1ccc2c3ncc(C(C)(C)O)cc3n(C(CCC(F)(F)F)CCC(F)(F)F)c2c1` [Example 4, 2-[7-(dimethyl-1H-1,2,3-triazol-5-yl)-5-(1,1,1,7,7,7-hexafluoroheptan-4-yl)-5H-pyrido[3,2-b]indol-3-yl]propan-2-ol] cannot be ordered by IC50: under 5 nM for the first, under 5 nM for the second.

`[2H]C([2H])([2H])c1nnn(C)c1-c1cc2c(cc1F)c1ncc(C(C)(C)O)cc1n2C(c1cc(OC)ccn1)C1CCOCC1` (single isomer, unassigned) [Example 51, 2-{8-fluoro-5-[(4-methoxypyridin-2-yl)(oxan-4-yl)methyl]-7-[4-(^2H3)methyl-1-methyl-1H-1,2,3-triazol-5-yl]-5H-pyrido[3,2-b]indol-3-yl}propan-2-ol] and `[2H]C([2H])([2H])c1nnn(C)c1-c1cc2c(cc1F)c1ncc(C(C)(C)O)cc1n2C(c1ncccc1OC)C1CCOCC1` (single isomer, unassigned) [Example 41, 2-{8-fluoro-5-[(3-methoxypyridin-2-yl)(oxan-4-yl)methyl}-7-[4-(^2H3)methyl-1-methyl-1H-1,2,3-triazol-5-yl]-5H-pyrido[3,2-b]indol-3-yl]propan-2-ol] cannot be ordered by IC50: under 1500 nM for the first, under 5 nM for the second.

`[2H]C([2H])([2H])c1nnn(C)c1-c1cc2c(cc1F)c1ncc(C(C)(C)O)cc1n2C(C1=CCCOC1)c1ccccc1` (racemic) [Example 61, 2-{5-[5,6-dihydro-2H-pyran-3-yl(phenyl)methyl]-8-fluoro-7-[4-(^2H3)methyl-1-methyl-1H-1,2,3-triazol-5-yl]-5H-pyrido[3,2-b]indol-3-yl}propan-2-ol] and `[2H]C([2H])([2H])c1nnn(C)c1-c1cc2c(cc1F)c1ncc(C(C)(C)O)cc1n2C(c1ccccc1)C1COC1` (single isomer, unassigned) [Example 67, 2-{8-fluoro-7-[4-(^2H3)methyl-1-methyl-1H-1,2,3-triazol-5-yl]-5-[oxetan-3-yl(phenyl)methyl]-5H-pyrido[3,2-b]indol-3-yl}propan-2-ol] cannot be ordered by IC50: under 5 nM for the first, under 5 nM for the second.

`[2H]C([2H])([2H])c1nnn(C)c1-c1cc2c(cc1F)c1ncc(C(C)(C)O)cc1n2C(c1ncccn1)C1CCOCC1` (single isomer, unassigned) [Example 47, 2-{8-fluoro-7-[4-(^2H3)methyl-1-methyl-1H-1,2,3-triazol-5-yl]-5-[oxan-4-yl(pyrimidin-2-yl)methyl]-5H-pyrido[3,2-b]indol-3-yl}propan-2-ol] and `[2H]C([2H])([2H])c1nnn(C)c1-c1cc2c(cc1F)c1ncc(C(C)(C)O)cc1n2C(c1ncccc1F)C1CCOCC1` (stereo not shown) [Example 30, 2-{8-Fluoro-5-[(3-fluoropyridin-2-yl)(oxan-4-yl)methyl]-7-[4-(^2H3)methyl-1-methyl-1H-1,2,3-triazol-5-yl]-5H-pyrido[3,2-b]indol-3-yl}propan-2-ol] cannot be ordered by IC50: under 5 nM for the first, under 1 nM for the second.

`[2H]C([2H])([2H])c1nnn(C)c1-c1cc2c(cc1Cl)c1ncc(C(C)(C)O)cc1n2C(c1cc(C)on1)C1CCOCC1` (single isomer, unassigned) [Example 79, 2-{8-chloro-5-[(5-methyl-1,2-oxazol-3-yl)(oxan-4-yl)methyl]-7-[4-(^2H3)methyl-1-methyl-1H-1,2,3-triazol-5-yl]-5H-pyrido[3,2-b]indol-3-yl}propan-2-ol] and `[2H]C([2H])([2H])c1nnn(C)c1-c1cc2c(cc1Cl)c1ncc(C(C)(C)O)cc1n2C(c1ccccn1)C1CCOCC1` (single isomer, unassigned) [Example 81, 2-{8-chloro-7-[4-(^2H3)methyl-1-methyl-1H-1,2,3-triazol-5-yl]-5-[oxan-4-yl(pyridin-2-yl)methyl]-5H-pyrido[3,2-b]indol-3-yl}propan-2-ol] cannot be ordered by IC50: under 1500 nM for the first, under 1500 nM for the second.

`[2H]C([2H])([2H])c1nnn(C)c1-c1ccc2c3ncc(C(C)(C)O)cc3n(C(c3ncccc3F)C3CCOCC3)c2c1F` (single isomer, unassigned) [Example 84, 2-{6-Fluoro-5-[(3-fluoropyridin-2-yl)(oxan-4-yl)methyl]-7-[4-(^2H3)methyl-1-methyl-1H-1,2,3-triazol-5-yl]-5H-pyrido[3,2-b]indol-3-yl}propan-2-ol] and `[2H]C([2H])([2H])c1nnn(C)c1-c1ccc2c3ncc(C(C)(C)O)cc3n(C(c3ncccc3F)C3CCOCC3)c2c1` (single isomer, unassigned) [Example 71, 2-{5-[(3-Fluoropyridin-2-yl)(oxan-4-yl)methyl]-7-[4-(^2H3)methyl-1-methyl-1H-1,2,3-triazol-5-yl]-5H-pyrido[3,2-b]indol-3-yl}propan-2-ol] cannot be ordered by IC50: under 5 nM for the first, under 1 nM for the second.

`[2H]C([2H])([2H])c1nnn(C)c1-c1cc2c(cc1F)c1ncc(C(C)(C)O)cc1n2C(CCC)c1ccccn1` (single isomer, unassigned) [Example 48, 2-{8-fluoro-7-[4-(^2H3)methyl-1-methyl-1H-1,2,3-triazol-5-yl]-5-[1-(pyridin-2-yl)butyl]-5H-pyrido[3,2-b]indol-3-yl}propan-2-ol] and `[2H]C([2H])([2H])c1nnn(C)c1-c1cc2c(cc1Cl)c1ncc(C(C)(C)O)cc1n2C(CCC)c1ncccc1F` (single isomer, unassigned) [Example 82, 2-{8-chloro-5-[1-(3-fluoropyridin-2-yl)butyl]-7-[4-(^2H3)methyl-1-methyl-1H-1,2,3-triazol-5-yl]-5H-pyrido[3,2-b]indol-3-yl}propan-2-ol] cannot be ordered by IC50: under 1500 nM for the first, under 1500 nM for the second.

`[2H]C([2H])([2H])c1nnn(C)c1-c1ccc2c3ncc(S(C)(=O)=O)cc3n([C@H](c3ccccc3)C3CCOCC3)c2c1` [Example 27, 5-{3-Methanesulfonyl-5-[(S)-oxan-4-yl(phenyl)methyl]-5H-pyrido[3,2-b]indol-7-yl}-4-(^2H3)methyl-1-methyl-1H-1,2,3-triazole] and `[2H]C([2H])([2H])c1nnn(C)c1-c1cc2c(cc1F)c1ncc(C(C)(C)O)cc1n2C(c1ncccn1)C1CCOCC1` (single isomer, unassigned) [Example 46] cannot be ordered by IC50: under 5 nM for the first, under 5 nM for the second.

`Cc1ccc2c(n1)c1c(C(N)=O)cc(-c3c(C)noc3C)cc1n2Cc1ccccc1` [Example 1, 5-Benzyl-7-(dimethyl-1,2-oxazol-4-yl)-2-methyl-5H-pyrido[3,2-b]indole-9-carboxamide] and `Cc1nnn(C)c1-c1cc2c(cc1F)c1ncc(C(C)(O)C3CC3)cc1n2[C@H](c1ccccc1F)C1CCOCC1` (single isomer, unassigned) [Example 24] cannot be ordered by IC50: under 1500 nM for the first, under 5 nM for the second.
